{
  "source": "patent US9695219B2",
  "about": "“Polypeptide having antibacterial activity and angiogenesis-inducing activity and wound-healing drug containing said polypeptide” (priority 2009, dated 2017)",
  "key": {"[1]": {"system": "Pseudomonas aeruginosa (clinical strain 12)", "experiment": "MIC measurement, broth microdilution", "assay_type": "cell-based", "conditions": "37° C. for 20 hours; tested twice, first/second value where not matched"}, "Escherichia coli": {"system": "Escherichia coli", "experiment": "MIC measurement, broth microdilution", "assay_type": "cell-based", "conditions": "37° C. for 20 hours; tested twice, first/second value where not matched", "procedure": "(§1) Further, with respect to not only the above-described strains but also various other strains, the “minimum inhibitory concentration (MIC)” was measured as follows. MIC is the lowest concentration of an agent that may inhibit the growth of a bacterium. MIC is used as a parameter for the efficacy of an antibacterial agent, for the strength of bacterial sensitivity, or the like. The bacteria can grow (proliferate) when the concentration is not higher than MIC, and cannot grow when the concentration is higher than MIC. Its measurement is carried out according to a method defined as a standard method by Japanese Society of Chemotherapy or CLINICAL AND LABORATORY […] (CLSI), but, in this Example, its measurement was carried out by a broth microdilution method in accordance with “M100-S17/M7-A7” (Performance Standards for Antimicrobial Susceptibility Testing; Seventeenth Informational Supplement, Vol. 27 No. 1) published by CLSI on January, 2007. That is, sensitivity test of agents was carried out using a microtiter plate or test tubes.\n(§2) The bacteria were cultured in liquid media for 4 to 6 hours, and thereafter absorbances at A600 were measured. Bacterial suspensions were diluted with Mueller-Hinton broth (MHB) according to McFarland #0.5. Each strain was added so as to attain about 10^5 CFU/ml (final concentration). Each peptide was prepared to an optional concentration, and the solutions were serially diluted from the concentration. The polypeptide at each concentration stage was added to a microplate or test tubes, and the bacterial suspension was added thereto. Chloramphenicol, amphotericin B, ciprofloxacin, meropenem (MEPM), ciprofloxacin (CPFX), tobramycin (TOB) and oxacillin (OX) were used as positive controls. The plate was incubated at 37° C. for 20 hours, and the lowest concentration where bacterial growth was inhibited was regarded as the minimum inhibitory concentration."}, "[2]": {"system": "Staphylococcus epidermidis", "experiment": "MIC measurement, broth microdilution", "assay_type": "cell-based", "conditions": "37° C. for 20 hours; tested twice, first/second value where not matched", "procedure": "as §1, §2"}, "[3]": {"system": "human vascular endothelial cells and fibroblast cells", "experiment": "Lumen formation test, areas of formed lumina (Angiogenesis Kit KZ-1000)", "assay_type": "cell-based", "conditions": "0.5, 2.5 and 10 μg/mL, Day 11 of culture", "procedure": "Then, in order to examine the angiogenesis activity of these, lumen formation by the polypeptides was evaluated using an angiogenesis kit available from KURABO […] LTD. (Product No.: KZ-1000). Vascular endothelial growth factor (VEGF) as a positive control, and polypeptide-free, unstimulated group as a negative control, were used.\nUsing a special medium for angiogenesis which was attached to the kit, each polypeptide was prepared such that the concentration thereof was respectively 0.5, 2.5 and 10 μg/mL. To a 24-well plate in which cells were plated (the cells were those obtained by co-culturing human vascular endothelial cells and fibroblast cells at an optimum concentration) which was attached to the kit, the special medium for angiogenesis containing each polypeptide was added, and the cells were cultured at 37° C. under 5% CO2. The medium was replaced with a medium containing the same additive on Day 4, Day 7 and Day 9 of culture. […]\nEach of the obtained images was quantified using an angiogenesis quantification software. The areas of formed lumina observed in each visual field were measured on the basis of the scale of an angiogenesis quantification software available from KURABO […] […] (angiogenesis quantification software Ver 1.0), and evaluated on the basis of the ratio of the areas of polypeptide-containing groups relative to the area of the negative control group."}, "[4]": {"system": "rat infected-wound model (wound infected with Staphylococcus aureus)", "experiment": "Healing effect in infected wounds", "assay_type": "in vivo", "conditions": "50 μg dropwise Days 0-3 with Staphylococcus aureus, followed to Day 10; vs bFGF formulation 3 μg", "procedure": "Referring to Stenberg B D et al. (J Surg Res. 1991 January; 50(1):47-50.) and Hayward P et al. (Am J Surg. 1992 March; 163(3):288-93.), a rat infected-wound model was produced as described below. HWY/slc hairless rats (male, 7-week old, obtained from Japan SLC, Inc.) were used. The day before full-thickness defects were created, the number of leukocytes was measured and cyclophosphamide was administered in tail vein (100 mg/kg). On the next day, the number of leukocytes was counted. Only the individuals in which the number of leukocytes was not more than 5000, were used. A square-shaped full-thickness defects of 1.73×1.73 cm (about 3 cm^2) were created on the back of the rats, and 25 μL of Staphylococcus aureus (about 10^5 CFU/25 μL) and SR-07 or SR-08 peptide as a test substance (2 mg/mL) was added dropwise onto the defect sites (the administered amount was 50 μg). On the other hand, 25 μL of the bFGF formulation (3 μg/25 μL) was added dropwise in the bFGF formulation (a positive control) group, and 25 μL of physiological saline was added dropwise in the negative control groups. […] From the day when the full-thickness defects were created to Day 10, the area where the wounds had still not healed was measured to calculate the ratio of it relative to the area where the wounds were created, and the results were shown in graphs (FIG. 9 (SR-07) and FIG. 10 (SR-08))."}},
  "note": "Where a SMILES comes first, the peptide text is derived from it. [ ]: non-standard residue; d: D form.",
  "data": [
    {"smiles": "CC[C@H](C)[C@H](NC(=O)[C@H](CC(C)C)NC(=O)[C@H](CCCCN)NC(=O)[C@@H](N)CC(C)C)C(=O)N[C@@H](Cc1ccccc1)C(=O)N[C@@H](CC(C)C)C(=O)N[C@@H](Cc1c[nH]cn1)C(=O)N[C@@H](CCCNC(=N)N)C(=O)N[C@@H](CC(C)C)C(=O)N[C@@H](CCCCN)C(=O)N[C@@H](CCCNC(=N)N)C(=O)N[C@@H](CCSC)C(=O)N[C@@H](CCCNC(=N)N)C(=O)N[C@@H](CCCCN)C(=O)N[C@@H](CCCNC(=N)N)C(=O)N[C@@H](CC(C)C)C(=O)N[C@H](CCCCN)C(=O)N[C@@H](CCCNC(=N)N)C(=O)N[C@@H](CCCCN)C(N)=O", "note": "[SR-08] (H-LKLIFLHRLKRMRKRL[dK]RK-NH2; N-terminus assumed)", "values": [
      {"measurement": "MIC, Pseudomonas aeruginosa (clinical strain 12)", "setting": "[1]", "value": "16/32"},
      {"measurement": "MIC, Escherichia coli", "setting": "Escherichia coli", "value": "32/64"},
      {"measurement": "MIC, Staphylococcus epidermidis", "setting": "[2]", "value": "8> μg/mL"},
      {"measurement": "Ability to form lumen (areas of formed lumina relative to negative control, FIG. 1)", "setting": "[3]", "value": "showed an ability to form lumen at the tested concentrations"},
      {"measurement": "Healing effect on infected wounds (unhealed area ratio, FIGS. 9 and 10)", "setting": "[4]", "value": "showed a higher healing effect on infected wounds than the bFGF formulation"}
    ]}
  ]
}
